For test [1], the system named is HEK293. Description: cells. Conditions: Homo sapiens.
The nature of test [2]: HEp-2 cell cytotoxicity, dose response, cytotoxicity control for RSV inhibitor project, HTS (AID 2410). The test is classed as functional. Conditions: human respiratory syncytial virus.
A further test has as its target Phospholipase A2 (Homo sapiens, UniProt P04054). The test is classed as functional.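 Further: confirmatory dose-response counterscreen on phospholipase A2, testing hits that came from an ultra-high-throughput screen for ATG4B inhibitors.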
Another test concerns the target Tumor necrosis factor (Homo sapiens, UniProt P01375). Description: TNFa-triggered NF-kB activation inhibitors, SAR follow-up, cell-based, revised (AID 2337). The test is classed as functional.
For test [3], the target named is T1, Nucleotide-binding oligomerization domain-containing protein 2 (Homo sapiens, UniProt Q9HC29). Description: NOD2 signaling inhibitors, cell-based, luminescence, uHTS, HEK293 (AID 1566). It is filed as functional.
T1 sequence (Q9HC29 whole entry, the tested form may be a part): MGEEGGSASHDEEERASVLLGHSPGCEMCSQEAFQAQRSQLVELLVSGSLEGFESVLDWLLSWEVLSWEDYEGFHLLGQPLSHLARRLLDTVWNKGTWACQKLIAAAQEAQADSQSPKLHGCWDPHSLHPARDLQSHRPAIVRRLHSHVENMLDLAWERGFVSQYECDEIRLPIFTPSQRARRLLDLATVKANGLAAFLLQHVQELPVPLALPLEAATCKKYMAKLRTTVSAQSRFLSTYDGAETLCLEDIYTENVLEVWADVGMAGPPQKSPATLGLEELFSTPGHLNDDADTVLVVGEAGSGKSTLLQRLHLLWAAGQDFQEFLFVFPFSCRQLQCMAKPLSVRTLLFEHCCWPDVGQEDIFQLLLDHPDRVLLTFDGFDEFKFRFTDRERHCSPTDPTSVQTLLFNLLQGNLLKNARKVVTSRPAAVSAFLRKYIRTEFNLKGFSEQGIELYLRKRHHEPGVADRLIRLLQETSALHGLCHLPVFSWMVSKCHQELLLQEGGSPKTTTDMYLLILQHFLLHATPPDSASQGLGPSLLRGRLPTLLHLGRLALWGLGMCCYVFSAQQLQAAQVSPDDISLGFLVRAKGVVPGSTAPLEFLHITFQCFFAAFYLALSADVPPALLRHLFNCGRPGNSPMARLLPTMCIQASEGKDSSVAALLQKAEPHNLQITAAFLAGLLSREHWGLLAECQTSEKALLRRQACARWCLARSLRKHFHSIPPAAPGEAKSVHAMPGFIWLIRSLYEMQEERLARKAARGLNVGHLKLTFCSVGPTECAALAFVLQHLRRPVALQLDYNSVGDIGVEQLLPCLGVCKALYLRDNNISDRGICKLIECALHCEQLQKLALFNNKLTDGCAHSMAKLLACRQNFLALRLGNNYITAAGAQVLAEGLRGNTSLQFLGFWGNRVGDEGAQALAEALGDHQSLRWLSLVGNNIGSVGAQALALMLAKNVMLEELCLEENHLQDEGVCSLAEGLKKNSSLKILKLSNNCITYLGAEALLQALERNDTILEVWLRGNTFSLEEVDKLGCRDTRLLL
In a further test the target is T2, Cysteine protease ATG4B (Homo sapiens, UniProt Q9Y4P1).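 Further: Fluorescence-based dose-response confirmation assay measuring inhibition of ATG4B activity.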
T2 sequence (Q9Y4P1 whole entry): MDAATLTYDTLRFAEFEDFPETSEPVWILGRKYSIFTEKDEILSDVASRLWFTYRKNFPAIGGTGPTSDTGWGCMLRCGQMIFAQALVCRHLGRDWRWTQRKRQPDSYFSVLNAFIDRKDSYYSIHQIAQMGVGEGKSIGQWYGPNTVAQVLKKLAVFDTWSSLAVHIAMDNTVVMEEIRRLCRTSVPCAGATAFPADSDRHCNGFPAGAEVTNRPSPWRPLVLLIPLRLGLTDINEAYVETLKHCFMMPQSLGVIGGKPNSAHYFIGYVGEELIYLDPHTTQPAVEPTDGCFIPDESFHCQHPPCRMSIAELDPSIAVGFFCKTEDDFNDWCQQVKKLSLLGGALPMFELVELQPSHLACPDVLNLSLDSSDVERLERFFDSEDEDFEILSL
The test is classed as functional.

Test [4] concerns HEK293. Description: NOD2 signaling inhibitors in MDP-stimulated cells, cell-based, uHTS, luminescence (AID 2001). The test is classed as functional. The following applies: Homo sapiens.
The target in test [5] is T3, Nucleotide-binding oligomerization domain-containing protein 1 (Homo sapiens, UniProt Q9Y239).
T3 sequence (Q9Y239 whole entry): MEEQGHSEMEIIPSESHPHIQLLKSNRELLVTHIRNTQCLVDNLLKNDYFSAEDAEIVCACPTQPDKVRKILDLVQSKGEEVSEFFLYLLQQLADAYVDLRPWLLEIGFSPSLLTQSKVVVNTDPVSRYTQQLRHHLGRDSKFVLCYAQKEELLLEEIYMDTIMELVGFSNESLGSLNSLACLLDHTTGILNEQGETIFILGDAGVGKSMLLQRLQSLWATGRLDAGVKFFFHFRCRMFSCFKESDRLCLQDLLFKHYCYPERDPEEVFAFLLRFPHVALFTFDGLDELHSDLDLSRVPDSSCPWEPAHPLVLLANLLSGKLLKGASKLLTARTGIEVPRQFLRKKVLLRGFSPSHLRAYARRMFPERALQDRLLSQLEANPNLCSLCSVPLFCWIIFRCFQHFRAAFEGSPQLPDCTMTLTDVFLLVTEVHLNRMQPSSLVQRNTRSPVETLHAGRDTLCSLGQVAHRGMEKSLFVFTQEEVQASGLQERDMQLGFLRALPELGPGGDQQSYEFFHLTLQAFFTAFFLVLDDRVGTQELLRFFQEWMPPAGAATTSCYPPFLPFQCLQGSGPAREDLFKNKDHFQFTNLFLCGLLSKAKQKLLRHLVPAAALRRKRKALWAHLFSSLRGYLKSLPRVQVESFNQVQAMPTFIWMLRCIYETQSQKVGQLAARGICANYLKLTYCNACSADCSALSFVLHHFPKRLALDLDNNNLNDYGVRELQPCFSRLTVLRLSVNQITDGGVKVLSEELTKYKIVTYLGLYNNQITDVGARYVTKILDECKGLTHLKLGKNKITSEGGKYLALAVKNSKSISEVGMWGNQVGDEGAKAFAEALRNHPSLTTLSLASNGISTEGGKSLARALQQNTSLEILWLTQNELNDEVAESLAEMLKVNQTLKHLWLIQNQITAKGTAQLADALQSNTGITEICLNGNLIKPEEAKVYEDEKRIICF
Description: NOD1 signaling inhibitors, SAR follow-up, revised (AID 2333). It is filed as functional.

The subject of test [6] is HEK293. Description: cells. The test is classed as functional, cell-based. The following applies: Homo sapiens.
Test [7] deals with HEK293. Description: cells. It is filed as functional, cell-based. The following applies: Homo sapiens. This is another data set of the same source.
The target in test [8] is T1, Nucleotide-binding oligomerization domain-containing protein 2. Description: PubChem AID 2334. It is filed as functional.
For test [9], the system named is HEK293. Description: cells. It is filed as functional, cell-based. Conditions: Homo sapiens. This is another data set of the same source.
The test system of test [10] is HEK293. Description: NOD1 signaling inhibitors, primary screen, cell-based, luminescence, uHTS (AID 1578). It is filed as functional. The following applies: Homo sapiens.
The target of test [11] is T4, Zinc finger protein mex-5 (Caenorhabditis elegans, UniProt Q9XUB2).
T4 sequence (Q9XUB2 whole entry): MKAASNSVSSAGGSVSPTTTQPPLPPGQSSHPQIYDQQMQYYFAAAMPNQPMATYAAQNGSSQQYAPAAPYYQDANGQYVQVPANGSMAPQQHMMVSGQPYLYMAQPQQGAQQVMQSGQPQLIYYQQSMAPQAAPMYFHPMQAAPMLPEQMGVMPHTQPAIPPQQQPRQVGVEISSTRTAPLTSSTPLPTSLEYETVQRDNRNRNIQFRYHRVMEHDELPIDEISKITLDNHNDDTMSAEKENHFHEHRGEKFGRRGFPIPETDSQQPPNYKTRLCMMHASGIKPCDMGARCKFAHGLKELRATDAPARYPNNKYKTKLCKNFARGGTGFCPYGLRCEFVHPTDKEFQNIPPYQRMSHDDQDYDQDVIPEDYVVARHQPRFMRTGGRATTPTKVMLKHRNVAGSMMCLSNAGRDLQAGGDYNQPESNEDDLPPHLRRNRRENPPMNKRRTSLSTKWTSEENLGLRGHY
Description: MEX-5/TCR-2 RNA interaction inhibitors, dose response, biochemical, C. elegans, fluorescence polarization (AID 1960).

A short description of test [12]: HeLa cell cytotoxicity, dose response, cytotoxicity control for MgcRacGAP inhibitor project (AID 624300). It is filed as functional.
The target of test [13] is T5, Microphthalmia-associated transcription factor (Homo sapiens, UniProt O75030).
T5 sequence (O75030 whole entry): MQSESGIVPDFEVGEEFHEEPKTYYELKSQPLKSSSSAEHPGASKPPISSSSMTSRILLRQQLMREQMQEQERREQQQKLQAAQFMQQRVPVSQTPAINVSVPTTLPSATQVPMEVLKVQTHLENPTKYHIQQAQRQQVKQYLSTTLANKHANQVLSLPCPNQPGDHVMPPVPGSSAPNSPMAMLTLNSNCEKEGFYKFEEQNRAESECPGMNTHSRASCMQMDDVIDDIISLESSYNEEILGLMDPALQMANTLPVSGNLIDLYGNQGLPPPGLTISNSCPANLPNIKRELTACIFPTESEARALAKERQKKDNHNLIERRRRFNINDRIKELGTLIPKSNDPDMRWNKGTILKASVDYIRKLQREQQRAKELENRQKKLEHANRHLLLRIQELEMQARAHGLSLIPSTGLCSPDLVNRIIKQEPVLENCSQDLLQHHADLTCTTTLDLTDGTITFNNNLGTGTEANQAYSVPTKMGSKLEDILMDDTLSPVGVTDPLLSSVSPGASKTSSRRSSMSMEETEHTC
Description: TRPM1 promoter luciferase signal decrease, dose response, MITF inhibitor project, cell-based, SK-MEL-5, cherry-picked, set 3 (AID 493073).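 Further: SK-MEL-5 melanoma cells with luciferase driven by the MITF target TRPM1 promoter.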 It is filed as functional.

The next test relates to Vero. Description: cells. The following applies: Chlorocebus sabaeus. It is filed as functional.
For test [14], the target named is T6, RNA-binding protein pos-1 (Caenorhabditis elegans, UniProt G5EF15).
T6 sequence (G5EF15 whole entry): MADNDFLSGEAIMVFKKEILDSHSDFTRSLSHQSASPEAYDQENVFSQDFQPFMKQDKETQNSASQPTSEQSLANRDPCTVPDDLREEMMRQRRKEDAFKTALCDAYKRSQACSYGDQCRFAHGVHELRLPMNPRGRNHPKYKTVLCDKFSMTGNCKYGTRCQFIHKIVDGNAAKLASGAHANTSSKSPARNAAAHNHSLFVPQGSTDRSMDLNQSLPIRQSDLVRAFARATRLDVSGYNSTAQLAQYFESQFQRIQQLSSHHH
Description: inhibitors of POS-1/mex-3 RNA binding, dose response, biochemical, fluorescence polarization (AID 1964).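 Further: purified POS-1 fused to maltose binding protein made in E. coli; potency of compounds blocking POS-1 binding to fluorescent RNA.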

The target in test [15] is Tyrosine-protein phosphatase non-receptor type 5 (Homo sapiens, UniProt P54829). Description: STEP phosphatase inhibitors, confirmation, biochemical, fluorescence intensity, uHTS hits (AID 602372). The test is classed as functional. The following applies: read-out: IC50_Mean.
Sequence of Tyrosine-protein phosphatase non-receptor type 5 (P54829 whole entry): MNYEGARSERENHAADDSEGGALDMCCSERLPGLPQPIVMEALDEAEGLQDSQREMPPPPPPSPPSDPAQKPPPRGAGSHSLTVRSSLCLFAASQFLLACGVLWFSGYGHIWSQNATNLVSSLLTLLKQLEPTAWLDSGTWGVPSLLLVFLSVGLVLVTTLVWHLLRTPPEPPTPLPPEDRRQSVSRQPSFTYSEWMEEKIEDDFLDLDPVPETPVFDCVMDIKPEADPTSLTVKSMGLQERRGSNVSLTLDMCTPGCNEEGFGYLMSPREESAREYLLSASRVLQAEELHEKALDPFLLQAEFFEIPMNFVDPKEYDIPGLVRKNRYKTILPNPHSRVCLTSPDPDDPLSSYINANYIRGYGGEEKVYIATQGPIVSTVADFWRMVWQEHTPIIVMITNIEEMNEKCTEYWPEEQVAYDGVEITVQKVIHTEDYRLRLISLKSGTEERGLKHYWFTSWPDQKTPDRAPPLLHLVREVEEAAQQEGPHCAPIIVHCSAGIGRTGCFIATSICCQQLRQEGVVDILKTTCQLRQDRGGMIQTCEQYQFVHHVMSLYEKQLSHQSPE
Test [16] concerns the target T7, Tyrosine-protein phosphatase non-receptor type 7 (Homo sapiens, UniProt P35236).
T7 sequence (P35236 whole entry): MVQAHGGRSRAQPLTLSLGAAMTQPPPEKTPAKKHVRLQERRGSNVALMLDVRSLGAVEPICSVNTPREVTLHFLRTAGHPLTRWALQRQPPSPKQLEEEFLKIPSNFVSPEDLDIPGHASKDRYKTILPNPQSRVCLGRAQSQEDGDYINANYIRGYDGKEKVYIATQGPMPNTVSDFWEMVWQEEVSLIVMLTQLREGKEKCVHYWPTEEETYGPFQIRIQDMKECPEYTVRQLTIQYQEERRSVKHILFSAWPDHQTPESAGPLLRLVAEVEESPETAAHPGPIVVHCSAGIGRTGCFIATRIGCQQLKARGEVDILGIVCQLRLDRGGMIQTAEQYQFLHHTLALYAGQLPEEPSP
Description: SAR analysis of chemical inhibitors of HePTP using a Fluorescent assay - Set 2. [Related pubchem assays (depositor defined):AID1059, AID1077, AID1661, AID2085, AID521]. The test is classed as functional.

Test [17] has as its target Tyrosine-protein phosphatase non-receptor type 11 (Homo sapiens, UniProt Q06124). Description: SHP2 phosphatase inhibition, dose response, selectivity assay for STEP inhibitor project, biochemical (AID 602367). It is filed as functional. Conditions: read-out: IC50_Mean.
For test [18], the target named is T8, Dual specificity protein phosphatase 3 (Homo sapiens, UniProt P51452). Description: SAR VHR1 Fluorescent Assay for In Vitro dose response studies Set 2. [Related pubchem assays (depositor defined):AID1654, AID1661, AID1878]. It is filed as functional.
T8 sequence (P51452 whole entry): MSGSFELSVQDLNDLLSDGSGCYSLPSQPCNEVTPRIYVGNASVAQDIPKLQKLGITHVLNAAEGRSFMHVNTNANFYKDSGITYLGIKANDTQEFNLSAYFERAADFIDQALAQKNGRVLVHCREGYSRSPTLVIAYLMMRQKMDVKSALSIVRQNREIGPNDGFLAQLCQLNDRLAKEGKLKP
Test [19] concerns the target T8, Dual specificity protein phosphatase 3. Description: VHR phosphatase inhibition, dose response, selectivity assay for STEP inhibitor project, biochemical (AID 602374). The following applies: read-out: IC50_Mean. The test is classed as functional.

The source made the active and inactive calls. A value given as a limit tells only on which side of the number the result lay.

Sequence of Phospholipase A2 (P04054 whole entry): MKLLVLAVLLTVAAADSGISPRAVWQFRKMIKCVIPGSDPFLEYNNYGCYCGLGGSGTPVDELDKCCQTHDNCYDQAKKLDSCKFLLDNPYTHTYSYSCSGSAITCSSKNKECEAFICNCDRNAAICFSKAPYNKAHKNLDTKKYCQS
Sequence of Tumor necrosis factor (P01375 whole entry, the tested form may be a part): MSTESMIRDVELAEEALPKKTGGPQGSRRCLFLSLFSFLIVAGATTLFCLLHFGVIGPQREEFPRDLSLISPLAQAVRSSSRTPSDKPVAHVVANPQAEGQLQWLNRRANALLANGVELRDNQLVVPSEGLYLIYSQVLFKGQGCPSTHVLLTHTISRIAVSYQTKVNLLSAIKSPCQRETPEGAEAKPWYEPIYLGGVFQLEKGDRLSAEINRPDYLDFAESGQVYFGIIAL
Sequence of Tyrosine-protein phosphatase non-receptor type 11 (Q06124 whole entry): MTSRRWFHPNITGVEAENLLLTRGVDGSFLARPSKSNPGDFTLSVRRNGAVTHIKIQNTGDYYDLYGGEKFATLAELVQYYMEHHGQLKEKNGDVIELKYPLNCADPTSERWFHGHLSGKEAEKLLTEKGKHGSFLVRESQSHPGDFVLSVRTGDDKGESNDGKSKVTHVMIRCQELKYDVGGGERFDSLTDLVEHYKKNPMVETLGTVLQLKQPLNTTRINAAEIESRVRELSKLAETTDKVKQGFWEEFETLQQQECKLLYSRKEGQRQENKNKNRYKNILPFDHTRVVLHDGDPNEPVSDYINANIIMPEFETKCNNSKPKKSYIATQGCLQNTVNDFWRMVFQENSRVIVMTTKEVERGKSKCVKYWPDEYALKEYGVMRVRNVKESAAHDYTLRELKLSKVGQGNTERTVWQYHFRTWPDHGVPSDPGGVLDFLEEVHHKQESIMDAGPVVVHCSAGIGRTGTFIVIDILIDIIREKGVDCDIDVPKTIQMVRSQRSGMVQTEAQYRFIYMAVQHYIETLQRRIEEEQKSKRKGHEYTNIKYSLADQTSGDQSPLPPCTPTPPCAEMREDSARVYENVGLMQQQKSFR

Take `O=C(CSc1nc2ccccc2c(=O)n1Cc1ccccc1)Nc1ccc(Br)cc1C(=O)O`: the IC50 is > 20 µM (inactive) in the test on HEK293 [1]; 12.1 µM (active) at Phospholipase A2; 5.7 µM (active) on Tumor necrosis factor; 13.9 µM (active) on Cysteine protease ATG4B; 10.2 µM (inactive) with HEK293 [4]; 5.99 µM (active) in test [5]. For the same molecule, the IC50 is > 20 µM (inactive) in the test with HEK293 [6], > 20 µM (inactive) in the test with HEK293 [7], 7.04 µM (active) in test [8] and > 20 µM (inactive) with HEK293 [9]. In addition, the CC50 – broadly, the concentration that lowers cell viability or growth by half – in test [2] was 11.1 µM (active). Further, the results for the concentration giving a half-maximal response (EC50) (in [3]; in the test on HEK293 [10]) were 7.92 µM (active) and 6.11 µM (active), respectively.
Consider `C=CCN1C(=O)NC(=O)/C(=C/C=C/c2ccccc2)C1=O`, for which the EC50 (as a rule, the concentration needed to bring the measured effect to its halfway point) in test [11] is > 300 µM (not active); in test [3], > 20 µM (inactive); in test [14], > 300 µM (not active); with HEK293 [10], > 20 µM (inactive). Besides, the half-maximal cytotoxic concentration (CC50) in test [12] was 75.4 µM (active); in the test on Vero, > 25 µM (active). Besides, the IC50 was 12.4 µM (inactive) in the test with HEK293 [4], 9.21 µM (active) with HEK293 [6], > 20 µM (inactive) in the test on HEK293 [7] and > 20 µM (inactive) in the test with HEK293 [9]. Moreover, the AC50 – broadly, the concentration giving half of the maximal activity seen – in test [13] was 5.94 µM (active).
Take `CN1CCN(C(S)=Nc2ccc(S(N)(=O)=O)cc2)CC1`: the IC50 in test [15] was 27.8 µM (inactive); in test [16] it was 27.4 µM (active); in test [17], 6.54 µM (active); in test [18], 15.4 µM (active); in test [19], 1.32 µM (active).
Consider `NS(=O)(=O)c1ccc(NC(=S)N2CCN(c3ccccc3)CC2)cc1`, for which the IC50 in [16] is 72.8 µM (active); in test [18] it was 67.2 µM (active).

For the origin of these results see ChEMBL document CHEMBL1201862, “PubChem BioAssay data set” (2004).
